# US20240245711A1, “A 19-NOR C3,3-DISUBSTITUTED C21-N-PYRAZOLYL STEROID FOR THE TREATMENT OF MAJOR DEPRESSIVE DISORDER” (Sage Therapeutics, Inc., priority 2021, published 2024)
# “Also recorded” adds a separate entry of the source.
# Test system: adult subjects with Major Depressive Disorder
# Assay: Phase 3 open-label 1-year study: safety and tolerability (TEAEs, SAEs, C-SSRS)
# Format: in vivo, human
# Protocol: Primary Objective: To determine the safety and tolerability of initial treatment and re-treatment(s) with Compound (1) in adults with Major Depressive Disorder (MDD) currently experiencing a major depressive episode (MDE) over a 1-year period.
# Study Population: Subjects were 18-75 years old, diagnosed with major depressive disorder (MDD) with a MADRS total score of ≥28 and a HAM-D total score of ≥20 at Screening and Day 1 (prior to dosing).
# Treatment Groups: The 30 mg and 50 mg dose groups were separated by time of enrollment. The study is comprised of two cohorts: one with Compound (1) 30 mg as a starting dose (30 mg Cohort: n=725), an initial cohort with Compound (1) 50 mg as a starting dose (50 mg Cohort: n=199). A patient receiving Compound (1) 30 mg could be dose reduced to 20 mg and patients receiving Compound (1) 50 mg could be dose reduced to 40 mg (based on tolerability). In all cohorts, Compound (1) is self-administered by patients as an oral therapy once nightly with food for 14 days.
# The study has a Screening Period of up to 28 days, a 14-day Treatment Period, and up to 1 year of Follow-up. FIG. 1 is an overview of the study.
# Antidepressants were permitted provided subjects were on a stable dose for at least 60 days prior to Day 1 and agreed to continue on the stable dose through the follow-up period (Day 42). Initiation of new antidepressants or any other medications that may potentially have an impact on efficacy or safety endpoints were not allowed between screening and completion of the Day 42 assessments.
# Eligible subjects were given Compound (1)—to be taken at home in the evening with meal.
# Subjects who continued in the Observation Period were monitored remotely via PHQ-9 assessment every two weeks. If PHQ-9 score was >=10 at any assessment, PHQ-9 assessment was switch to every week until the score came down below 10 or the subject was dosed with Compound (1) in a subsequent cycle, whichever was earlier. A subject was to come back to the site for HAM-D assessment within a week of PHQ-9 score >=10; if the HAM-D total score >=20 and at least 56 days had elapsed since the last dose of Compound (1), another dosing cycle of Compound (1) were to start. If any of these criteria were not met, the subject couldn't be treated with Compound (1) at that time. Without the trigger of PHQ-9>=10 the subject was to have a clinic visit every 8 weeks. A subject could have at most 5 cycles of treatment within a year. FIG. 2 is a depiction of the eligibility criteria of the study.
# Dose reduction from 30 mg to 20 mg or 50 mg to 40 mg was allowed in any treatment cycle if the safety and/or tolerability of the subject so warrants. […] Subjects who dose reduced from 30 mg to 20 mg still started with 30 mg in the next treatment cycle.
# The cohorts pertaining to the different doses that the subjects received were defined as following: • 50 mg cohort: This cohort includes subjects who have initiated treatment with 50 mg and received re-treatment with 50 mg only. • 30 mg cohort: This cohort includes subjects who have initiated treatment with 30 mg regardless of the dose they have received in re-treatments. • Low dose cohort: This cohort includes subjects who have initiated treatment with 30 mg and received re-treatment with 30 mg only. • Dose switch cohort: This cohort includes subjects who have received initial treatment with 30 mg and at least one subsequent re-treatment with 50 mg. • Study Period X: starts on the date of the first dose of Compound (1) in cycle X and goes up to one day prior to the first dose of the next cycle. […]
# [1] = 50 mg Cohort, one-year follow-up (Example 4)
# [2] = Low Dose Cohort, ATD use at period-specific baseline No, Study Period 1
# [3] = Low Dose Cohort, ATD use at period-specific baseline No, Study Period 2
smiles,measurement,setting,value
"C[C@@]1(O)CC[C@H]2[C@H](CC[C@@H]3[C@@H]2CC[C@]2(C)[C@@H](C(=O)Cn4cc(C#N)cn4)CC[C@@H]32)C1 [Compound (1), 1-(2-((3R,5R,8R,9R,10S,13S,14S,17S)-3-hydroxy-3,13-dimethylhexadecahydro-1H-cyclopenta[a]phenanthren-17-yl)-2-oxoethyl)-1H-pyrazole-4-carbonitrile]",Subjects with at least one TEAE leading to study drug discontinuation,30 mg Cohort (N = 725),19 (2.6%)
same,Subjects with at least one TEAE leading to study withdrawal,30 mg Cohort (N = 725),32 (4.4%)
same,Subjects with at least one serious TEAE,30 mg Cohort (N = 725),20 (2.8%)
same,"TEAE severity Mild, subjects n (%)",30 mg Cohort (N = 725),200 (27.6%)
same,"TEAE severity Moderate, subjects n (%)",30 mg Cohort (N = 725),248 (34.2%)
same,"TEAE severity Severe / subjects with at least one severe TEAE, n (%)",30 mg Cohort (N = 725),45 (6.2%)
same,Events of loss of consciousness,"30 mg and 50 mg, as of the cutoff date",No events of loss of consciousness
same,Possibly or probably related SAEs,50 mg Cohort,Confusional state; also recorded: Asthenia; also recorded: Delirium
same,Subjects with at least one serious TEAE,50 mg Cohort (N = 199),7 (3.5%)
same,"TEAE Arthralgia, subjects n (%)",50 mg Cohort (N = 199),1 (0.5%)
same,"TEAE Back Pain, subjects n (%)",50 mg Cohort (N = 199),0%
same,"TEAE Diarrhea, subjects n (%)",50 mg Cohort (N = 199),4 (2.0%)
same,"TEAE Dizziness, subjects n (%)",50 mg Cohort (N = 199),30 (15.1%)
same,"TEAE Dry Mouth, subjects n (%)",50 mg Cohort (N = 199),7 (3.5%)
same,"TEAE Fatigue, subjects n (%)",50 mg Cohort (N = 199),5 (2.5%)
same,"TEAE Headache, subjects n (%)",50 mg Cohort (N = 199),20 (10.1%)
same,"TEAE Insomnia, subjects n (%)",50 mg Cohort (N = 199),10 (5.0%)
same,"TEAE Nausea, subjects n (%)",50 mg Cohort (N = 199),11 (5.5%)
same,"TEAE Sedation, subjects n (%)",50 mg Cohort (N = 199),18 (9.0%)
same,"TEAE Somnolence, subjects n (%)",50 mg Cohort (N = 199),29 (14.6%)
same,"TEAE Upper Respiratory Tract Infection, subjects n (%)",50 mg Cohort (N = 199),1 (0.5%)
same,"TEAE severity Mild, subjects n (%)",50 mg Cohort (N = 199),45 (22.6%)
same,"TEAE severity Moderate, subjects n (%)",50 mg Cohort (N = 199),65 (32.7%)
same,"TEAE severity Severe / subjects with at least one severe TEAE, n (%)",50 mg Cohort (N = 199),15 (7.5%)
same,"Withdrawn in Treatment Cycle 1: Adverse event, n (%)",50 mg Cohort (n = 199),11 (5.5%)
same,Maximum severity of TEAEs reported by the majority of subjects,[1],mild to moderate
same,"TEAE Dizziness, subjects n (%)",[1],15.1%
same,"TEAE Headache, subjects n (%)",[1],12.7%
same,"TEAE Insomnia, subjects n (%)",[1],7.0%
same,"TEAE Nausea, subjects n (%)",[1],6.5%
same,"TEAE Sedation, subjects n (%)",[1],10.1%
same,"TEAE Somnolence, subjects n (%)",[1],16.1%
same,"TEAE tremor, subjects (n; %)",[1],5.5%
same,Subjects reporting TEAEs leading to discontinuation of study drug,"50 mg Cohort, one-year follow-up (Example 4), 13/199",6.5%
same,Subjects reporting TEAEs leading to withdrawal from study,"50 mg Cohort, one-year follow-up (Example 4), 16/199",8.0%
same,Subjects reporting at least one adverse event,"50 mg Cohort, one-year follow-up (Example 4), 137 of 199",68.8%
same,"Subjects reporting TEAEs leading to dose reduction, n/N","50 mg cohort, Cycle 2",2/26
same,Proportion of subjects reporting TEAEs,"50 mg cohort, as printed in b423 (46/76)",60.5%
same,Subjects reporting TEAEs leading to dose reduction,"50 mg cohort, overall (34/199)",17.1%
same,Tolerability,"Compound (1) 50 mg, 50 mg Cohort followed up to one year (Example 4)",generally well-tolerated
same,Subjects with at least one serious TEAE,Dose Switch Cohort (N = 80),1 (1.3%)
same,"TEAE Arthralgia, subjects n (%)",Dose Switch Cohort (N = 80),5 (6.3%)
same,"TEAE Back Pain, subjects n (%)",Dose Switch Cohort (N = 80),5 (6.3%)
same,"TEAE Diarrhea, subjects n (%)",Dose Switch Cohort (N = 80),11 (13.8%)
same,"TEAE Dizziness, subjects n (%)",Dose Switch Cohort (N = 80),7 (8.8%)
same,"TEAE Dry Mouth, subjects n (%)",Dose Switch Cohort (N = 80),3 (3.8%)
same,"TEAE Fatigue, subjects n (%)",Dose Switch Cohort (N = 80),8 (10.0%)
same,"TEAE Headache, subjects n (%)",Dose Switch Cohort (N = 80),13 (16.3%)
same,"TEAE Insomnia, subjects n (%)",Dose Switch Cohort (N = 80),5 (6.3%)
same,"TEAE Nausea, subjects n (%)",Dose Switch Cohort (N = 80),3 (3.8%)
same,"TEAE Sedation, subjects n (%)",Dose Switch Cohort (N = 80),11 (13.8%)
same,"TEAE Somnolence, subjects n (%)",Dose Switch Cohort (N = 80),10 (12.5%)
same,"TEAE Upper Respiratory Tract Infection, subjects n (%)",Dose Switch Cohort (N = 80),5 (6.3%)
same,"TEAE severity Mild, subjects n (%)",Dose Switch Cohort (N = 80),13 (16.3%)
same,"TEAE severity Moderate, subjects n (%)",Dose Switch Cohort (N = 80),36 (45.0%)
same,"TEAE severity Severe / subjects with at least one severe TEAE, n (%)",Dose Switch Cohort (N = 80),8 (10.0%)
same,Proportion of subjects reporting TEAEs,"Dose Switch cohort, as printed in b423 (37/48)",77.1%
same,Subjects reporting TEAEs leading to dose reduction,"Dose switch cohort, Cycle 1 while on 30 mg",2.5%
same,Subjects reporting TEAEs leading to dose reduction,"Dose switch cohort, Cycle 2 while on 30 mg",2.5%
same,Subjects reporting TEAEs leading to dose reduction,"Dose switch cohort, Cycle 3 while switched to 50 mg",4.2%
same,Subjects reporting TEAEs leading to dose reduction,"Dose switch cohort, Cycle 4 while switched to 50 mg",3.8%
same,Subjects reporting TEAEs leading to dose reduction,"Dose switch cohort, Cycle 5 while switched to 50 mg",17.4%
same,Subjects reporting TEAEs leading to dose reduction,"Dose switch cohort, overall (12/80)",15.0%
same,Possibly or probably related SAEs,Low Dose Cohort,Suicidal ideation
same,Subjects with at least one serious TEAE,Low Dose Cohort (N = 645),19 (2.9%)
same,"TEAE Arthralgia, subjects n (%)",Low Dose Cohort (N = 645),14 (2.2%)
same,"TEAE Back Pain, subjects n (%)",Low Dose Cohort (N = 645),18 (2.8%)
same,"TEAE Diarrhea, subjects n (%)",Low Dose Cohort (N = 645),43 (6.7%)
same,"TEAE Dizziness, subjects n (%)",Low Dose Cohort (N = 645),47 (7.3%)
same,"TEAE Dry Mouth, subjects n (%)",Low Dose Cohort (N = 645),40 (6.2%)
same,"TEAE Fatigue, subjects n (%)",Low Dose Cohort (N = 645),27 (4.2%)
same,"TEAE Headache, subjects n (%)",Low Dose Cohort (N = 645),90 (14.0%)
same,"TEAE Insomnia, subjects n (%)",Low Dose Cohort (N = 645),31 (4.8%)
same,"TEAE Nausea, subjects n (%)",Low Dose Cohort (N = 645),25 (3.9%)
same,"TEAE Sedation, subjects n (%)",Low Dose Cohort (N = 645),29 (4.5%)
same,"TEAE Somnolence, subjects n (%)",Low Dose Cohort (N = 645),76 (11.8%)
same,"TEAE Upper Respiratory Tract Infection, subjects n (%)",Low Dose Cohort (N = 645),52 (8.1%)
same,"TEAE severity Mild, subjects n (%)",Low Dose Cohort (N = 645),187 (29.0%)
same,"TEAE severity Moderate, subjects n (%)",Low Dose Cohort (N = 645),212 (32.9%)
same,"TEAE severity Severe / subjects with at least one severe TEAE, n (%)",Low Dose Cohort (N = 645),37 (5.7%)
same,"Withdrawn in Treatment Cycle 1: Adverse event, n (%)",Low Dose Cohort (n = 645),15 (2.3%)
same,Subjects with a TEAE leading to study drug discontinuation,[2],(3.2%)
same,Subjects with a Treatment cycle period AE leading to study withdrawal,[2],(3.7%)
same,Subjects with at least one TEAE,[2],(67.5%)
same,Subjects with at least one Treatment cycle period TEAE,[2],(53.6%)
same,Subjects with at least one Treatment cycle period serious TEAE,[2],(1.3%)
same,Subjects with at least one Treatment cycle period severe TEAE,[2],(2.6%)
same,Subjects with at least one Treatment period AE,[2],(51.2%)
same,Subjects with a TEAE leading to study drug discontinuation,[3],1 (0.8%)
same,Subjects with a Treatment cycle period AE leading to study withdrawal,[3],3 (2.5%)
same,Subjects with at least one TEAE,[3],75 (63.6%)
same,Subjects with at least one Treatment cycle period TEAE,[3],58 (49.2%)
same,Subjects with at least one Treatment cycle period serious TEAE,[3],0%
same,Subjects with at least one Treatment cycle period severe TEAE,[3],2 (1.7%)
